Usually viability stands for a read-out of living cells in per cent, often relative to untreated cells.

The data set can be described thus: in vitro. As to conditions: human, hela cells, % viability.

Molecules are shown by their SMILES.

Take `COCc1nc2n(n1)CC(NC1CCCCc3ccccc31)CC2` (stereo not shown) [CBK304445]: the viability at 28.5 h, 10 µM was 89.4%. For `CC(=O)c1cccc(NC(=O)CN2CCCC2c2cccs2)c1` (stereo not shown) [CBK305143], the viability at 28.5 h, 10 µM was determined as 109%. The same measure, in the same setting: in the case of `Cc1cc(C)c2nc(-c3ccccn3)cc(C(=O)NCc3cccs3)c2c1` [CBK267772] it was 86.1%; in that of `c1ccc(CC2CCN(Cc3cccnc3)CC2)cc1` [CBK126381], 95.9%.

For the molecule `CCOc1ccccc1NC(=O)NC1CC2CCC(C1)N2Cc1ccccc1` (stereo not shown) [CBK116294], the viability at 28.5 h, 10 µM was 86.2%. Same read-out and setting: with `COc1cc(CC(=O)Nc2cccc(-c3ccc(SC(F)(F)F)cc3)c2)cc(OC)c1OC` [CBK132426] the figure was 100%; with `O=C(c1ccc2ncccc2c1)N1CCN(Cc2ccccc2)CC1` [CBK200175], 99.1%; with `CN1CCC(N2CCN(C(=O)c3ccc(-c4ccc(OC(F)(F)F)cc4)nc3)CC2)CC1` [CBK156206], 92.8%. Still for that read-out and setting: with `O=C(O)COc1ccc(NC(=O)C2CCCO2)cc1` (stereo not shown) [CBK270063] the figure was 102%; with `Cc1ccc(SCS(=O)(=O)c2ccc(C)cc2)cc1` [CBK026853], 97.8%; with `OCCOc1ncnc2ccccc12` [CBK001412], 107%. The same measure, in the same setting: in the case of `Cc1cc(=O)oc2ccc(OCC(=O)Nc3ccc(S(=O)(=O)O)cc3)cc12` [CBK263185N] it was 100%. As to `O=C(c1ccccc1[N+](=O)[O-])n1nc(-c2cccnc2)nc1NCc1cccs1` [CBK269094], the viability at 28.5 h, 10 µM stood at 99.5%. The same measure, in the same setting: in the case of `CC(C)OC(=O)N1CCC(C(=O)NC(c2ccccc2)c2ccc3ccccc3n2)CC1` (stereo not shown) [CBK059642] it was 106%; in that of `CCN(CC)C(=O)c1sc2ncccc2c1NS(=O)(=O)c1ccc(C)c([N+](=O)[O-])c1` [CBK050618], 112%. The same measure, in the same setting: with `c1ccn(CCOc2nccnc2-c2ccsc2)c1` [CBK106772] the figure was 94.4%; with `CC(=O)N1C[C@@H](c2cccc(C)c2)[C@@H]2CN(Cc3cccnc3)CC[C@@H]21` [CBK283368], 89.7%; with `CC(NC(=O)/C(=C\c1ccc(Cl)cc1)NC(=O)c1ccco1)C(=O)O` (stereo not shown) [CBK263617], 93%. Turning to `Brc1cn2ccnc2c(NCC2CC2)n1` [CBK037432], the viability at 28.5 h, 10 µM is 93.6%. In the case of `Cc1onc(-c2ccccc2)c1CNC(=O)c1ccc(OC(F)(F)F)cc1` [CBK144080], the viability at 28.5 h, 10 µM stood at 97.9%. Still for that read-out and setting: in the case of `O=C(COc1ccc2ccccc2c1)Oc1ccc2ccccc2c1` [CBK264885] it was 110%; in that of `CN(CCCNC(=O)/C=N/O)CCCC(C)(C)C` [CBK288480], 110%. On the same count and under the same terms, in the case of `Cc1ccc(C2=NN(C(=O)CCC(=O)O)C(c3cc4cccc(C)c4[nH]c3=O)C2)cc1` (stereo not shown) [CBK296927] it was 91%; in that of `Cc1cc(C)nc(SCc2c(C)c(C)c(CSc3nc(C)cc(C)n3)c(C)c2C)n1` [CBK262070], 109%. Turning to `Nc1ncc(-c2ccco2)nc1N1CCC(C(=O)O)CC1` [CBK063440], the viability at 28.5 h, 10 µM was determined as 87%. On the same count and under the same terms, with `CC(C)c1ccc(S(=O)(=O)Nc2ccc(OC(F)F)cc2)cc1` [CBK044565] the figure was 87.8%; with `O=C(Cn1c(=O)n(Cc2ccco2)c2ncccc21)N1CCCC1` [CBK284708], 88.9%. Still for that read-out and setting: with `Cc1ccc(-c2nc3cc(Cl)ccc3o2)cc1NC(=S)NC(=O)c1cccc(Cl)c1` [CBK264022] the figure was 108%; with `C#C[C@H]1C[N@@]2CC[C@H]1C[C@@H]2CNS(=O)(=O)c1cccc(C#N)c1` [CBK288753], 106%; with `COc1ccc2[nH]cc(C3CCN(Cc4cc(C)no4)CC3)c2c1` [CBK303996], 91.5%.

As for `CN1CCN(C(=O)c2cccc(-c3nc(-c4ccc(C#N)cc4)cnc3N)c2)CC1` [CBK064144], the viability at 28.5 h, 10 µM stood at 100%. Same read-out and setting: with `Cc1nc2c3c(sc2c(=O)[nH]1)NC(=O)CC3c1ccccc1` (stereo not shown) [CBK288094] the figure was 93.1%; with `CN1CC[C@@H]2[C@H]1C(=O)NC[C@H](CCC(=O)NCc1cccs1)N2C` [CBK289028], 115%. For the molecule `Cc1ccc(C(=O)C2=C(O)C(=O)N(Cc3cccnc3)C2c2cccc([N+](=O)[O-])c2)cc1` (stereo not shown) [CBK264593], the viability at 28.5 h, 10 µM turned out to be 89.3%.

In the case of `CC1CCN(Cc2c(O)ccc3c(=O)c(-c4cccc(Cl)c4)c(C(F)(F)F)oc23)CC1` [CBK266258], the viability at 28.5 h, 10 µM stood at 103%. Still for that read-out and setting: with `O=S(=O)(O)c1ccc(N/N=C/c2cccc(/C=N/Nc3ccc(S(=O)(=O)O)cc3)c2)cc1` [CBK278204N] the figure was 89%. On the same count and under the same terms, in the case of `O=C(O)CNCc1ccc(-c2ccc(Cl)cc2)o1` [CBK287258] it was 102%; in that of `Cn1nc(C2CCN(C(=O)c3cccc(F)c3)CC2)c2cccnc21` [CBK284898], 94%; in that of `N#Cc1ccc(Oc2ccc(C(=O)NCC(=O)O)cc2)cc1` [CBK286579], 90.1%. On the same count and under the same terms, with `COc1cc(/C=C2\SC(=S)N(Cc3cccnc3)C2=O)ccc1OCc1cccc2ccccc12` [CBK264624] the figure was 112%; with `CCN(CC)C(=O)C1CCCN(C(=O)NCC2COc3ccccc3O2)C1` (stereo not shown) [CBK156116], 81.4%. For `Cc1cc(F)c(S(N)(=O)=O)cc1NC(=O)c1ccc(C(F)(F)F)cc1` [CBK051448], the viability at 28.5 h, 10 µM came to 104%. Still for that read-out and setting: with `CN1CCC(N(C)C(=O)Nc2cccnc2)C1` (stereo not shown) [CBK156026] the figure was 93.8%; with `Cc1cc(N2C(=O)c3ccc(C(=O)O)cc3C2=O)ccc1NC(=O)c1cccs1` [CBK265415], 92.8%. As to `OC1(c2nnsc2-c2ccccc2)CCCC1` [CBK007956], the viability at 28.5 h, 10 µM was 90.2%. Still for that read-out and setting: with `COc1cc(C=CC(=O)O)ccc1OCc1cn2cc(Cl)ccc2n1` [CBK296722] the figure was 99.1%. Consider `O=C(CCn1c(C(F)F)cc2cccnc21)N1CCCC(CO)C1` (stereo not shown) [CBK284985], for which the viability at 28.5 h, 10 µM was 99.5%.

Turning to `COc1ccccc1CC(=O)NCc1nc(-c2cccc(C)c2)no1` [CBK269336], the viability at 28.5 h, 10 µM stood at 96.7%. `CCn1nncc1CNC1CCc2[nH]c3ccc(C)cc3c2C1` (stereo not shown) [CBK304749]: the viability at 28.5 h, 10 µM was 98.3%. The same measure, in the same setting: with `CN(Cc1ccccc1)c1nccnc1-c1ccccc1F` [CBK037410] the figure was 95%; with `Cc1cc2ccccc2n2c(=O)n(CCNC(=O)C(C)C)nc12` [CBK282876], 84.2%; with `CN1CCN(c2cc(C(F)(F)F)c3scc(C(=O)NCCC4=CCCCC4)c3n2)CC1` [CBK028474], 110%.

Take `O=C(N[C@@H](Cn1cc(Cl)c(=O)[nH]c1=O)C(=O)O)C1CC1` [CBK289649]: the viability at 28.5 h, 10 µM amounted to 88.3%. The same measure, in the same setting: with `O=C(O)C1CSC(c2cccc(Cl)c2Cl)N1` (stereo not shown) [CBK077526] the figure was 106%. Still for that read-out and setting: in the case of `CCc1nc2c(OCc3ccccc3)cccn2c1N(Cc1ccc(OC)cc1)C(C)=O` [CBK147887] it was 89.8%.

As for `CCCCc1nccc(-c2ccc(OCC)c(C(=O)O)c2)n1` [CBK307429], the viability at 28.5 h, 10 µM came to 82.8%.

As to `O=C(/C=C/c1ccc(Cl)cc1Cl)NCCNc1c(Cl)cccc1[N+](=O)[O-]` [CBK264295], the viability at 28.5 h, 10 µM turned out to be 110%. On the same count and under the same terms, in the case of `COCc1cccc(Nc2ncnc3c2cnn3CCO)c1` [CBK306214] it was 93.2%; in that of `Cc1cc2ncc3c(n2n1)CC1CCC3N1Cc1ccccc1` (stereo not shown) [CBK282266], 104%; in that of `COc1ccc(N2CCN(c3c(C)c(C)nc4cc(-c5nccn5C)nn34)CC2)cc1` [CBK286178], 85.1%.

Regarding `Cc1ccc(C=C2C(=O)NC(=O)NC2=O)cc1[N+](=O)[O-]` [CBK262102], the viability at 28.5 h, 10 µM (bulk resorufin, single well) worked out at 97.9%.

As for `O=C(c1csnn1)N1CCN(CCc2ccccc2)CC1` [CBK200228], the viability at 28.5 h, 10 µM is 96.6%. Still for that read-out and setting: with `N#Cc1cc2c(nc1SCC(O)COCc1ccccc1)CCCC2` (stereo not shown) [CBK265967] the figure was 104%; with `Cc1cc(-c2cn(C)nc2C2CCCN2C(=O)CC(C)(C)C)on1` (stereo not shown) [CBK283453], 87.3%; with `CCOC(=O)c1cnn2c(N)c(C(N)=O)nnc12` [CBK023694], 98.2%. `Cc1ncsc1CCOc1ncccc1C(F)(F)F` [CBK115781]: the viability at 28.5 h, 10 µM was found to be 92.2%. Same read-out and setting: with `O=C(CCN1CCCCC1)Nc1cnc(-c2ccc(F)cc2)c(-c2ccsc2)n1` [CBK036846] the figure was 90.3%; with `CN(C)S(=O)(=O)c1ccc(C(=O)C2=C(O)C(=O)N(CCN3CCCCC3)C2c2cccnc2)cc1` (stereo not shown) [CBK264700], 99.9%; with `CC(=O)c1ccc(-c2cnc(Nc3ccc(N4CCOCC4)cc3)c3nccn23)s1` [CBK091231], 95.3%. On the same count and under the same terms, with `CC(NC(=O)N1CCC1)c1cccc(S(N)(=O)=O)c1` (stereo not shown) [CBK306357] the figure was 91.5%; with `O=C1CCCCCC1C(Nc1ccc2ccccc2c1)c1cccnc1` (stereo not shown) [CBK293919], 86.4%. Regarding `COC(=O)c1ccccc1OCCc1csc(NS(=O)(=O)c2cccc(Cl)c2C)n1` [CBK023735], the viability at 28.5 h, 10 µM was 116%. Take `O=C(Nc1nnc(-c2ccco2)o1)c1ccccc1` [CBK287420]: the viability at 28.5 h, 10 µM was found to be 96.3%. On the same count and under the same terms, in the case of `O=C(Nc1ccc2n(c1=O)C[C@H]1C[C@@H]2CN(C(=O)Nc2ccc(F)cc2)C1)c1ccco1` [CBK289205] it was 85.4%; in that of `Nc1nc(Cc2ccc(F)cc2)no1` [CBK028717], 110%; in that of `O=C(O)CCCC(=O)Nc1ccccc1Br` [CBK261322], 102%. Take `NS(=O)(=O)c1cccc(NC(=O)c2cccnc2)c1` [CBK024417]: the viability at 28.5 h, 10 µM is 93.6%. On the same count and under the same terms, in the case of `Cc1csc(C(Cc2ccsc2)NC(=O)CC2CCCO2)n1` (stereo not shown) [CBK282227] it was 92.1%; in that of `Cc1c(C(=O)O)sc2nc(SCC(=O)Nc3ccc(OCc4ccccc4)cc3)[nH]c(=O)c12` [CBK296992], 88.5%.

The values are drawn from paper PMC12040169 (PLOS Biology, 2025).
